Measured values from ChEMBL document CHEMBL1201862, “PubChem BioAssay data set” (2004).
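A five-concentration, 48-hour dose response in 96-well plates underlies each endpoint, interpolated linearly between surrounding concentrations. Here, GI50 denotes the concentration required for 50% inhibition of growth.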 Active and inactive are the calls of the source. No stated cut-off is given here; in the data, active = GI50 up to about 1.1 µM and inactive = higher.

Columns and labels:
Experiment in all cases: growth of human tumour cells (NCI), 48 h
786-0 = test system: 786-0
A549 = test system: A549
ACHN = test system: ACHN
BT-549 = test system: BT-549
CAKI-1 = test system: CAKI-1
CCRF-CEM = test system: CCRF-CEM
COLO 205 = test system: COLO 205
DU-145 = test system: DU-145
EKVX = test system: EKVX
HCC 2998 = test system: HCC 2998
HCT-116 = test system: HCT-116
HCT-15 = test system: HCT-15
HL-60 = test system: HL-60
HOP-62 = test system: HOP-62
HOP-92 = test system: HOP-92
HT-29 = test system: HT-29
Hs-578T = test system: Hs-578T
IGROV-1 = test system: IGROV-1
KM12 = test system: KM12
LOX IMVI = test system: LOX IMVI
M14 = test system: M14
MCF7 = test system: MCF7
MDA-MB-231 = test system: MDA-MB-231
MDA-MB-435 = test system: MDA-MB-435
MDA-N = test system: MDA-N
MOLT-4 = test system: MOLT-4
Malme-3M = test system: Malme-3M
NCI-H226 = test system: NCI-H226
NCI-H23 = test system: NCI-H23
NCI-H460 = test system: NCI-H460
NCI-H522 = test system: NCI-H522
NCI/ADR-RES = test system: NCI/ADR-RES
OVCAR-3 = test system: OVCAR-3
OVCAR-4 = test system: OVCAR-4
OVCAR-5 = test system: OVCAR-5
OVCAR-8 = test system: OVCAR-8
PC-3 = test system: PC-3
RPMI-8226 = test system: RPMI-8226
SF-268 = test system: SF-268
SF-295 = test system: SF-295
SF-539 = test system: SF-539
SK-MEL-28 = test system: SK-MEL-28
SK-MEL-2 = test system: SK-MEL-2
SK-MEL-5 = test system: SK-MEL-5
SK-OV-3 = test system: SK-OV-3
SN12C = test system: SN12C
SNB-19 = test system: SNB-19
SNB-75 = test system: SNB-75
SR = test system: SR
SW-620 = test system: SW-620
T47D = test system: T47D
TK-10 = test system: TK-10
U-251 = test system: U-251
UACC-257 = test system: UACC-257
UACC-62 = test system: UACC-62
UO-31 = test system: UO-31

In the case of `CSC1(Cc2ccccn2)C(=O)Nc2cccc([N+](=O)[O-])c21` (stereo unspecified), the GI50 (786-0) is reported as > 100 µM (inactive), the GI50 (A549) is reported as > 100 µM (inactive) and the GI50 (ACHN) is reported as > 100 µM (inactive). For the same compound, the GI50 (BT-549) was > 100 µM (inactive), the GI50 (CAKI-1) was > 100 µM (inactive) and the GI50 (CCRF-CEM) was 48 µM (inactive). For the same compound, the GI50 (COLO 205) was > 100 µM (inactive), the GI50 (DU-145) was > 100 µM (inactive) and the GI50 (EKVX) was > 100 µM (inactive). The GI50 (HCC 2998) was > 100 µM (inactive), the GI50 (HCT-116) was 79.1 µM (inactive) and the GI50 (HCT-15) was greater than 100 µM. For the same compound, the GI50 (HL-60) was 42.3 µM (inactive), the GI50 (HOP-62) was > 100 µM (inactive) and the GI50 (HOP-92) was > 100 µM (inactive). For the same compound, the GI50 (HT-29) was > 100 µM (inactive), the GI50 (Hs-578T) was > 100 µM (inactive) and the GI50 (IGROV-1) was > 100 µM (inactive). The GI50 (KM12) was > 100 µM (inactive), the GI50 (LOX IMVI) was 53.5 µM (inactive) and the GI50 (M14) was > 100 µM (inactive). For the same compound, the GI50 (MCF7) was 76 µM (inactive), the GI50 (MDA-MB-231) was > 100 µM (inactive) and the GI50 (MDA-MB-435) was > 100 µM (inactive). For the same compound, the GI50 (MDA-N) was > 100 µM (inactive), the GI50 (MOLT-4) was 33.3 µM (inactive) and the GI50 (Malme-3M) was 47.9 µM (inactive). For the same compound, the GI50 (NCI-H226) was > 100 µM (inactive), the GI50 (NCI-H23) was > 100 µM (inactive) and the GI50 (NCI-H460) was > 100 µM (inactive). For the same compound, the GI50 (NCI-H522) was 61.1 µM (inactive), the GI50 (NCI/ADR-RES) was > 100 µM (inactive) and the GI50 (OVCAR-3) was > 100 µM (inactive). The GI50 (OVCAR-4) was > 100 µM (inactive), the GI50 (OVCAR-5) was > 100 µM (inactive) and the GI50 (OVCAR-8) was > 100 µM (inactive). The GI50 (PC-3) was > 100 µM (inactive), the GI50 (RPMI-8226) was 78 µM (inactive) and the GI50 (SF-268) was > 100 µM (inactive). The GI50 (SF-295) was > 100 µM (inactive), the GI50 (SF-539) was > 100 µM (inactive) and the GI50 (SK-MEL-28) was 55.5 µM (inactive). The GI50 (SK-MEL-2) was > 100 µM (inactive), the GI50 (SK-MEL-5) was > 100 µM (inactive) and the GI50 (SK-OV-3) was > 100 µM (inactive). For the same compound, the GI50 (SN12C) was > 100 µM (inactive), the GI50 (SNB-19) was > 100 µM (inactive) and the GI50 (SNB-75) was > 100 µM (inactive). The GI50 (SR) was > 100 µM (inactive), the GI50 (SW-620) was 56.4 µM (inactive) and the GI50 (T47D) was 52.1 µM (inactive). The GI50 (TK-10) was > 100 µM (inactive), the GI50 (U-251) was > 100 µM (inactive) and the GI50 (UACC-257) was > 100 µM (inactive). For the same compound, the GI50 (UACC-62) was > 100 µM (inactive) and the GI50 (UO-31) was > 100 µM (inactive).
